No end group written: not given here. *: point of attachment. Dansyl = CN(C)c1cccc2c(S(=O)(=O)*)cccc12
Assays:
[1] = target: T1, human carbonic anhydrase II, HCAII (Homo sapiens, UniProt P00918); test: Surface plasmon resonance-based steady state affinity, immobilized HCAII; conditions: 1:1 binding model, peptide 40 nM to 10 μM
Procedure: [Taylor, P. W.; King, R. W.; Burgen, A. S. V. Biochemistry 1970, 9, 2638-2645] […] Lond. B 1976, 193, 107-125]. […] 1.4 equivalents of Id were allowed to react with 1 equivalent of KE2-P or KE3-P in 50 mM Tris-HCl buffer at pH 8.0 and room temperature.

[2] = target: T1, human carbonic anhydrase II, HCAII; test: Fluorescence emission spectra of dansyl-labelled peptides in absence and presence of HCAII; assay type: binding; conditions: 1 μM peptide, 50 μM HCAII, 10 mM HBS buffer pH 7.4, 298 K, excitation 335 nm
Procedure: Dotted lines represent spectra in the absence of HCAII, solid lines represent spectra where 50 μM HCAII has been added.
Spectra were recorded of 1 μM peptide solutions in 10 mM HBS buffer at pH 7.4 and 298 K, in the absence and presence of 50 μM HCAII, with 1 μM solutions of KE2-P and KE3-P as negative controls, FIG. 2.

Kd [1] | increase of fluorescence intensity upon addition of HCAII [2] | Compound
44 nM |  | NS(=O)(=O)c1ccc(C(=O)NCCCCCC(=O)O)cc1 [Ic]
 | not affected | KE3-P: KE3 with dansyl fluorescent probe at the side chain of Lys15; control without ligand (NAADLEAKIRHLAEK(Dansyl)LAARGPCDAAQLAEQLARRFEAFARAG)
